One series relates to Jurkat cells. The series can be described thus: Cell cycle arrest assay. Type of series: cell-based. The conditions noted are these: 50 nM, 24 h, propidium iodide. On the procedure: Jurkat cells (ATCC), cultured in RMPI-1640 media supplemented with 10% FBS, were obtained in logarithmic growth. 1 million cells/ml were seeded into a 12-well tissue-culture treated plate in a 950 μL volume. Cells were treated with Compound 5 in 50 μL of growth media such that the final concentration of Compound 5 was 50 nM, control cells were given 50 μL of growth media alone. Cells were incubated for 24 h at 37° C., 5% CO2 in a humidified incubator. Following incubation, cells were thoroughly resuspended and transferred to 5 mL FACS tubes, and stored on ice. Two washes were performed by spinning cells down in a swinging-bucket centrifuge at 450×g for 4 min, resuspending in 1 mL ice-cold PBS. Cells were fixed through the addition of 3 mL ice-cold 100% ethanol in a dropwise fashion under vortex, and immediately stored at 4° C. for 1 h. During the 1 h incubation, the following staining solution was prepared in ice-cold PBS: 10 μg/ml propidium iodide, 10 U/ml RNAse 1f, and 0.05% Triton X-100. Following the 1 h fixation incubation, ethanol was removed by spinning cells as described above, and washing twice in 1 mL ice-cold PBS. Cells were resuspended in 500 μL of the above-mentioned staining solution, and incubated at room temperature for 1 h. […] Histograms were generated using FCS Express, plotting # of events against fluorescence in FL-3.

For series [1], the system named is Human Pancreatic cell line BxPC-3. The series can be described thus: Cellular cytotoxicity of compounds, Example 3.1 (CellTiter-Glo). Type of series: cell-based. As to conditions: five nights. As to the method: (§1) Compounds were tested on one or more of Human T-cell leukemia cell line Jurkat (ATCC: TIB-152); Human breast cancer cell lines HCC1954 (ATCC: CRL-2338) and JIMT-1 (DSMZ: ACC 589); Human Pancreatic cell line BxPC-3 (ATCC: CRL.1687), Human ovarian adenocarcinoma cell line SK-OV-3 (ATCC: HTB-77) and Human gastric carcinoma cell line NCI-N87 (ATCC: CRL. 5822); to assess their cytotoxicity.
(§2) Briefly, cells were obtained from commercial sources and cultured as described in the product sheet provided. Cells were removed from their culture vessels and the resulting cell suspension was counted using a ViCell (Beckman Coulter), then seeded at 25,000 cells/mL (2,500 cells/well) in Costar 3904 black walled, flat bottomed 96-well plates (cells were seeded in the inner 60 wells of 96-well TC plates, and outer edge wells filled with water). Adherent cell lines were incubated for one night at 37° C./5% CO2 atmosphere to allow the cells to attach to the microtiter plate surface, while suspension (Jurkat) cells were plated immediately before use. Cytotoxins were dissolved and serially diluted in dimethyl sulfoxide and then the solutions were added to complete growth medium at five-times the desired maximum final concentration. The cytotoxins were then titrated in growth medium, normally 1:3, over eight steps. A control with no test article present (growth medium alone) was included on each microtiter plate in sextuplicate. The prepared toxin titrations were added (25 μL/well) in triplicate to each cell line assayed. […] After the incubation, cell viability was measured using CellTiter-Glo® by adding 30 μL of prepared CellTiter-Glo® reagent to each assay well. The mixtures were incubated for at least twenty minutes in the dark prior to measuring emitted luminescence using a microplate luminometer (500 ms integration time). The collected relative luminescence units (RLU) were converted to % cytotoxicity using the growth medium alone control mentioned above (% Cytotoxicity=1−[well RLU/average medium alone control RLU]×[…]).
A general note: ATP-based viability assays read luminescence as a measure of living cells.

Series [2] concerns Human gastric carcinoma cell line NCI-N87. The description is as above. It counts as cell-based. The conditions noted are these: five nights. As to the method: as §1, §2
The test system of series [3] is Human T-cell leukemia cell line Jurkat. The description is as above. Type of series: cell-based. The conditions noted are these: three nights. On the procedure:
as §1, §2

Series [4] relates to Jurkat, HCC1954, NCI-N87, BxPC-3, SK-OV-3, and JIMT-1 Cell Lines. The series can be described thus: Cellular cytotoxicity, Example 3.1, control cytotoxin on all cell lines. Type of series: cell-based, Human. As to conditions: Example 3.1 cell lines. On the procedure:
as §1
Briefly, cells were obtained from commercial sources and cultured as described in the product sheet provided. Cells were removed from their culture vessels and the resulting cell suspension was counted using a ViCell (Beckman Coulter), then seeded at 25,000 cells/mL (2,500 cells/well) in Costar 3904 black walled, flat bottomed 96-well plates (cells were seeded in the inner 60 wells of 96-well TC plates, and outer edge wells filled with water). […] After the incubation, cell viability was measured using CellTiter-Glo® by adding 30 μL of prepared CellTiter-Glo® reagent to each assay well. The mixtures were incubated for at least twenty minutes in the dark prior to measuring emitted luminescence using a microplate luminometer (500 ms integration time). The collected relative luminescence units (RLU) were converted to % cytotoxicity using the growth medium alone control mentioned above (% Cytotoxicity=1−[well RLU/average medium alone control RLU]×[…]).

In another series the test system is Jurkat cell line. Kind of series: Cytotoxicity of compounds, Example 3 (CellTiter-Glo, 3 days). It counts as cell-based, Human. The conditions noted are these: titrated 1:3 starting with 30 nM. As to the method:
Compounds were tested on Jurkat and HCC1954 cell lines to assess their cytotoxicity. Compounds were titrated 1:3 starting at various concentrations (30 nM to 1000 nM). Control cytotoxin HTI-286 (see, e.g., U.S. Pat. No. 7,579,323) was also titrated 1:3 across starting with a 30 nM concentration. Plates were incubated for 3 days. Cell viability was quantified using 30 μL/well of 1× CellTiter-Glo reagent.
Each cell line was grown in its respective growth medium until seeding day. Cells were removed from their culture vessels and the resulting cell suspension was counted using the ViCell. Cells were then diluted in their growth medium to 25000/mL such that 100 μL/well=2500 cells/well. Each cell line was seeded in the inner 60 wells of 96-well black walled TC plates, outer wells filled with water. HCC1954 were seeded a day prior to assay set up. Cytotoxins were diluted as described below a 5× dose-response of each compound was prepared using RPMI+10% FBS in a deep-well 96-well plate. This “master” dilution plate was used for each cell line. 25 μL of the 5× dose responses was spiked into each cell line in triplicate. The plates were returned to the incubator and were incubated for 3 nights. After the 3 nights, cell viability was quantified using 30 μL/well of 1× CellTiter-glo reagent. After at least 10 minutes of incubation, the luminescence was measured using the SpectraMax (500 ms integration).

Structures are written as SMILES.

On to `CC[C@H](C)[C@@H]([C@@H](CC(=O)N1CCC[C@H]1[C@H](OC)[C@@H](C)C(=O)NS(=O)(=O)c1ccc(N)cc1)OC)N(C)C(=O)[C@@H](NC(=O)[C@H](C(C)C)N(C)C)C(C)C` [Compound 5, (S)—N-((3R,4S,5S)-1-((S)-2-((1R,2R)-3-(4-Aminophenylsulfonamido)-1-methoxy-2-methyl-3-oxopropyl)pyrrolidin-1-yl)-3-methoxy-5-methyl-1-oxoheptan-4-yl)-2-((S)-2-(dimethylamino)-3-methylbutanamido)-N,3-dimethylbutanamide], for which the “DNA content histograms, cell cycle phase” value in the series on Jurkat cells was “pronounced shift towards G2/M phase of the cell cycle”.
Broadly, the EC50 is the midpoint of the concentration-response curve. `CC[C@H](C)[C@@H]([C@@H](CC(=O)N1CCC[C@H]1[C@H](OC)[C@@H](C)C(=O)NS(=O)(=O)c1ccc(NC(=O)C(F)(F)F)cc1)OC)N(C)C(=O)[C@@H](NC(=O)[C@@H](NC)C(C)(C)c1ccccc1)C(C)C` [Compound 18]: the figures for the EC50 in series [1], in series [2] and in series [3] were 2.3 nM, 0.9 nM and 1.5 nM, respectively.
Turning to `CN[C@H](C(=O)N[C@H](C(=O)N(C)[C@H](/C=C(\C)C(=O)O)C(C)C)C(C)(C)C)C(C)(C)c1ccccc1` [HTI-286], the “killing of all cell lines by control cytotoxin” value in series [4] was “successfully killed all cell lines at an expected concentration”. In the series with Jurkat cell line, the “killing of Jurkats by control cytotoxin” value is “successfully killed Jurkats at an expected concentration”.
